Eleven compounds from US11008313B2, “Substituted 1-methyl-1,2,3,4-tetrahydroisoquinoline molecules as PCSK9 allosteric binders” (Merck Sharp & Dohme Corp., priority 2016, dated 2021) can be followed below.

The target of one assay is PCSK9 (Homo sapiens, UniProt Q8NBP7). Put plainly: Fluorescence polarization competition binding assay (probe: compound of Example 57). To be noted: 2 μM PCSK9, 50 nM compound of Example 57 as probe, overnight incubation; read-out: FP IC. The gist of the method: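 Competition fluorescence-polarization binding: 2 μM PCSK9 with 50 nM fluorescent probe in 20 mM HEPES pH 7.5, 150 mM NaCl, 1 mM CaCl2, 0.005% P-20, incubated with test compound overnight in the dark. Anisotropy read; % inhibition relative to DMSO wells and probe-without-PCSK9 wells.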

The target in assay [1] is T1, HEK293 cells stably overexpressing PCSK9 (Homo sapiens, UniProt Q8NBP7).
T1 construct: expressed in transfected cells
Put plainly: Protein degradation assay (Western Blot/Sally Sue assay). To be noted: 24 hrs compound treatment, serum free DMEM. The assay is classed as cell-based. Here is the method:
Samples were run on the Sally Simple Western system from ProteinSimple (San Jose, Calif.) using default assay conditions. Briefly, 5×10^4 HEK293 cells stably overexpressing PCSK9 were seeded into Collagen I coated 96 well plates and allowed to recover overnight at 37° C. with 5% CO2. After 24 hrs of compound treatment in serum free DMEM cell culture medium, cells were washed with PBS and lysed in 100 ul RIPA buffer (Teknova) supplemented with protease inhibitors and subsequently mixed with fluorescent standards as per manufacturer's specifications, followed by denaturation at 95° C. for 5 minutes. Anti-PCSK9 mAb antibody (Abbomax, Cat. No. 601-650) was used for PCSK9 detection. The reported DC50 values represent the effective concentration of compound to lower PCSK9 protein levels, pro and mature, by 50%.

Setting [2] is: mature PCSK9 protein level lowered by 50%, read-out: PCSK9 DC50 (Mature).
Where [3] appears, read: pro PCSK9 protein level lowered by 50%, read-out: PCSK9 DC50 (Pro).
Where [4] appears, read: mature PCSK9 protein level lowered by 50%.
Where [5] appears, read: pro PCSK9 protein level lowered by 50%.

Several values for one entry are separate records, joined by “and”; a condition that tells them apart may be missing. Identical values can stand only once. Like-named read-outs stand apart in the source and are kept apart here.

Chain of PCSK9 (Q8NBP7 153-692): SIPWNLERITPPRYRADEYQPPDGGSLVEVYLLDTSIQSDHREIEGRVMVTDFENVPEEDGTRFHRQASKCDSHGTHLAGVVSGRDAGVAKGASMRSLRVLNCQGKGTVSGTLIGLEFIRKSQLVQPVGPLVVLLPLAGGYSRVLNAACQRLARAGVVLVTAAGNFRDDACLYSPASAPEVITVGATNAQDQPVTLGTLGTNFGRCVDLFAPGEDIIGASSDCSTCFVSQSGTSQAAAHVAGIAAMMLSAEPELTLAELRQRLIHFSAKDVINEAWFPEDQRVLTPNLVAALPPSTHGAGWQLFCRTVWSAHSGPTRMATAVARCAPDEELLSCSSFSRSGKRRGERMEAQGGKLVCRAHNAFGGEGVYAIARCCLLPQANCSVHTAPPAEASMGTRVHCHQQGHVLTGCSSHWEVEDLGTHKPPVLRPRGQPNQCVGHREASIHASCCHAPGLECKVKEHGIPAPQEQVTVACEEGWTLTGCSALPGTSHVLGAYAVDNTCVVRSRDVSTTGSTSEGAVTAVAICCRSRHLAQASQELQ

For `CC(C)Cc1ccc([C@H](C)C(=O)NCCOCCOCCOc2cc3c(cc2Oc2ccc(-c4ccc(C(=O)O)cc4)c(F)c2)[C@@](C)(CC(=O)Nc2nccs2)NCC3)cc1` [Example 93], the IC50 at PCSK9 was 188 nM and 578 nM. In addition, the DC50 came out at 4240 nM in assay [1] (setting [2]) and 6180 nM in assay [1] (setting [3]).

On to `C[C@]1(CC(=O)Nc2nccs2)NCCc2cc(OCCOCCOCCNC(=O)CC34CC5CC(CC(C5)C3)C4)c(Oc3ccc(-c4ccc(C(=O)O)cc4)c(F)c3)cc21` [Example 94, 4-(((R)-6-(2-(2-(2-(2-((3r,5r,7r)-adamantan-1-yl)acetamido)ethoxy)ethoxy)ethoxy)-1-methyl-1-(2-oxo-2-(thiazol-2-ylamino)ethyl)-1,2,3,4-tetrahydroisoquinolin-7-yl)oxy)-2′-fluoro-[1,1′-biphenyl]-4-carboxylic acid], for which, at PCSK9, the IC50 is 76.9 nM. In addition, the 50% degradation concentration (DC50) in assay [1] (setting [2]) was found to be 8520 nM; in assay [1] (setting [3]) it was 1360 nM.

For the compound `CC(C)C[C@H](NC(=O)[C@@H](O)[C@H](N)Cc1ccccc1)C(=O)NCCOCCOCCOc1cc2c(cc1Oc1ccc(-c3ccc(C(=O)O)cc3)c(F)c1)[C@@](C)(CC(=O)Nc1nccs1)NCC2` [Example 95, 4′-(((R)-6-(((11S,14S,15R)-15-amino-14-hydroxy-11-isobutyl-10,13-dioxo-16-phenyl-3,6-dioxa-9,12-diazahexadecyl)oxy)-1-methyl-1-(2-oxo-2-(thiazol-2-ylamino)ethyl)-1,2,3,4-tetrahydroisoquinolin-7-yl)oxy)-2′-fluoro-[1,1′-biphenyl]-4-carboxylic acid], at PCSK9, the IC50 was 107 nM. Moreover, the “PCSK9 DC50 (Mature) μM” value in assay [1] (setting [4]) is “inactive”. In addition, the “PCSK9 DC50 (Pro) μM” value in assay [1] (setting [5]) is recorded as “Inactive”.

Take `C[C@]1(CC(=O)Nc2nccs2)NCCc2cc(OCCOCCOCCOCCNC(=O)CC34CC5CC(CC(C5)C3)C4)c(Oc3ccc(-c4ccc(C(=O)O)cc4)c(F)c3)cc21` [Example 96]: on PCSK9, the IC50 amounted to 110 nM. Moreover, the DC50 is 1050 nM in assay [1] (setting [2]) and 6550 nM in assay [1] (setting [3]).

In the case of `CC(C)C[C@H](NC(=O)[C@@H](O)[C@H](N)Cc1ccccc1)C(=O)NCCOCCOCCOCCOc1cc2c(cc1Oc1ccc(-c3ccc(C(=O)O)cc3)c(F)c1)[C@@](C)(CC(=O)Nc1nccs1)NCC2` [Example 97, 4′-(((R)-6-(((14S,17S,18R)-18-amino-17-hydroxy-14-isobutyl-13,16-dioxo-19-phenyl-3,6,9-trioxa-12,15-diazanonadecyl)oxy)-1-methyl-1-(2-oxo-2-(thiazol-2-ylamino)ethyl)-1,2,3,4-tetrahydroisoquinolin-7-yl)oxy)-2′-fluoro-[1,1′-biphenyl]-4-carboxylic acid], at PCSK9, the IC50 stood at 130 nM. The “PCSK9 DC50 (Mature) μM” value in assay [1] (setting [4]) is “inactive”. Besides, the “PCSK9 DC50 (Pro) μM” value in assay [1] (setting [5]) is recorded as “Inactive”.

Turning to `CC(C)Cc1ccc([C@H](C)C(=O)NCCOCCOCCOCCOc2cc3c(cc2Oc2ccc(-c4ccc(C(=O)O)cc4)c(F)c2)[C@@](C)(CC(=O)Nc2nccs2)NCC3)cc1` [Example 98, 2′-fluoro-4′-(((R)-6-(((S)-14-(4-isobutylphenyl)-13-oxo-3,6,9-trioxa-12-azapentadecyl)oxy)-1-methyl-1-(2-oxo-2-(thiazol-2-ylamino)ethyl)-1,2,3,4-tetrahydroisoquinolin-7-yl)oxy)-[1,1′-biphenyl]-4-carboxylic acid], the IC50 on PCSK9 stood at 260 nM. The DC50 turned out to be 5070 nM in assay [1] (setting [2]) and 6080 nM in assay [1] (setting [3]).

In the case of `CC(C)(C)OC(=O)/N=C(/NCCC[C@H](NC(=O)OC(C)(C)C)C(=O)NCCOCCOCCOCCOc1cc2c(cc1Oc1ccc(-c3ccc(C(=O)O)cc3)c(F)c1)[C@@](C)(CC(=O)Nc1nccs1)NCC2)NC(=O)OC(C)(C)C` [Example 99, 4′-(((R)-6-(((S,Z)-6,11-bis((tert-butoxycarbonyl)amino)-2,2-dimethyl-4,12-dioxo-3,16,19,22-tetraoxa-5,7,13-triazatetracos-5-en-24-yl)oxy)-1-methyl-1-(2-oxo-2-(thiazol-2-ylamino)ethyl)-1,2,3,4-tetrahydroisoquinolin-7-yl)oxy)-2′-fluoro-[1,1′-biphenyl]-4-carboxylic acid], the IC50 on PCSK9 is 718 nM. Moreover, the DC50 in assay [1] (setting [2]) was 9000 nM; in assay [1] (setting [3]), 1370 nM.

As for `CC(C)C[C@@H](NC(=O)[C@H](O)[C@@H](N)Cc1ccccc1)C(=O)NCCOCCOc1cc2c(cc1Oc1ccc(-c3ccc(C(=O)O)cc3)c(F)c1)[C@@](C)(CC(=O)Nc1nccs1)NCC2` [Example 100, 4′-(((R)-6-(2-(2-((R)-2-((2R,3S)-3-amino-2-hydroxy-4-phenylbutanamido)-4-methylpentanamido)ethoxy)ethoxy)-1-methyl-1-(2-oxo-2-(thiazol-2-ylamino)ethyl)-1,2,3,4-tetrahydroisoquinolin-7-yl)oxy)-2′-fluoro-[1,1′-biphenyl]-4-carboxylic acid], on PCSK9, the IC50 was found to be 96.4 nM. Further, the “PCSK9 DC50 (Mature) μM” value in assay [1] (setting [4]) was “inactive”. Also, the “PCSK9 DC50 (Pro) μM” value in assay [1] (setting [5]) was “Inactive”.

In the case of `COCCOc1cc2c(cc1Oc1ccc(-c3ccc(C(=O)O)cc3)c(F)c1)[C@@](C)(CC(=O)Nc1nccs1)NCC2` [Example 101, (R)-2′-fluoro-4′-((6-(2-methoxyethoxy)-1-methyl-1-(2-oxo-2-(thiazol-2-ylamino)ethyl)-1,2,3,4-tetrahydroisoquinolin-7-yl)oxy)-[1,1′-biphenyl]-4-carboxylic acid], the IC50 on PCSK9 amounted to 130 nM. The “PCSK9 DC50 (Mature) μM” value in assay [1] (setting [4]) is “inactive”. In addition, in assay [1] (setting [5]), the “PCSK9 DC50 (Pro) μM” value was “Inactive”.

On to `Cc1ncsc1-c1ccc(CNC(=O)[C@@H]2C[C@@H](O)CN2C(=O)[C@@H](NC(=O)COCCOCC(=O)NCCOCCOc2cc3c(cc2Oc2ccc(-c4ccc(C(=O)O)cc4)c(F)c2)[C@@](C)(CC(=O)Nc2nccs2)NCC3)C(C)(C)C)cc1` [Example 102, 2′-fluoro-4′-(((R)-6-(((S)-16-((2S,4R)-4-hydroxy-2-((4-(4-methylthiazol-5-yl)benzyl)carbamoyl)pyrrolidine-1-carbonyl)-17,17-dimethyl-7,14-dioxo-3,9,12-trioxa-6,15-diazaoctadecyl)oxy)-1-methyl-1-(2-oxo-2-(thiazol-2-ylamino)ethyl)-1,2,3,4-tetrahydroisoquinolin-7-yl)oxy)-[1,1′-biphenyl]-4-carboxylic acid], for which, on PCSK9, the IC50 was 162 nM. In assay [1] (setting [4]), the “PCSK9 DC50 (Mature) μM” value was “inactive”. The “PCSK9 DC50 (Pro) μM” value in assay [1] (setting [5]) is given as “Inactive”.

Turning to `Cc1ncsc1-c1ccc(CNC(=O)[C@@H]2C[C@@H](O)CN2C(=O)[C@@H](NC(=O)COCCOCCOCC(=O)NCCOCCOc2cc3c(cc2Oc2ccc(-c4ccc(C(=O)O)cc4)c(F)c2)[C@@](C)(CC(=O)Nc2nccs2)NCC3)C(C)(C)C)cc1` [Example 103, 2′-fluoro-4′-(((R)-6-(((S)-19-((2S,4R)-4-hydroxy-2-((4-(4-methylthiazol-5-yl)benzyl)carbamoyl)pyrrolidine-1-carbonyl)-20,20-dimethyl-7,17-dioxo-3,9,12,15-tetraoxa-6,18-diazahenicosyl)oxy)-1-methyl-1-(2-oxo-2-(thiazol-2-ylamino)ethyl)-1,2,3,4-tetrahydroisoquinolin-7-yl)oxy)-[1,1′-biphenyl]-4-carboxylic acid], the IC50 at PCSK9 is 162 nM. Moreover, the “PCSK9 DC50 (Mature) μM” value in assay [1] (setting [4]) is “inactive”. Moreover, the “PCSK9 DC50 (Pro) μM” value in assay [1] (setting [5]) is “Inactive”.
